These results are taken from patent publication US20240400555A1 (Initial Therapeutics, Inc., priority 2023, published 2024).

The test system of this experiment is HCT-116 Firefly-luciferase reporter cells. Put plainly: Cellular c-MYC Reporter Assay. Format: cell-based. As to conditions: Homo sapiens; untitled table following Table 8a; HCT-116 Firefly-luciferase reporter cells, 24 h; read-out: pIC50 (converted). The essentials: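 Reporter cells seeded at 5e4 cells/mL in McCoy's 5A with 10% FBS and G418, dosed after 4–6 h at 0.2% final DMSO. After 24 h at 37 °C, luciferase luminescence was read with ONE-Glo.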
`Cn1cc(-c2ccc(C(=O)N(c3ncccc3-c3cc[nH]n3)[C@@H]3CCCNC3)cc2)nn1` [Example 101, (R)—N-(3-(1H-pyrazol-3-yl)pyridin-2-yl)-4-(1-methyl-1H-1,2,3-triazol-4-yl)-N-(piperidin-3-yl)benzamide]: the IC50 was greater than 10000 nM.
Consider `Cc1cccc2ccnc(N(C(=O)c3cccc(Cn4nccn4)c3F)[C@@H]3CCCNC3)c12` [Example 282, (R)-3-((2H-1,2,3-triazol-2-yl)methyl)-2-fluoro-N-(8-methylisoquinolin-1-yl)-N-(piperidin-3-yl)benzamide], for which the IC50 was 4170 nM.
The same measure for `Cc1cccc2ccnc(N(C(=O)c3ccc(Nc4ccn(C)n4)cc3F)[C@@H]3CCCNC3)c12` [Example 277, (R)-2-fluoro-4-((1-methyl-1H-pyrazol-3-yl)amino)-N-(8-methylisoquinolin-1-yl)-N-(piperidin-3-yl)benzamide]: 4900 nM; for `Cc1cccc2ccnc(N(C(=O)N3CCC(c4cccc(O)c4)CC3)[C@@H]3CCCNC3)c12` [Example 269, (R)-4-(3-hydroxyphenyl)-N-(8-methylisoquinolin-1-yl)-N-(piperidin-3-yl)piperidine-1-carboxamide]: 3550 nM; for `Cc1cccc2ccnc(N(C(=O)N3CCC(O)(c4ccccc4OCc4ccccc4)CC3)[C@@H]3CCCNC3)c12` [Example 297, (R)-4-(2-(benzyloxy)phenyl)-4-hydroxy-N-(8-methylisoquinolin-1-yl)-N-(piperidin-3-yl)piperidine-1-carboxamide]: 7760 nM.
The same measure for `O=C(c1ccc(-n2nnc3cccnc32)cc1F)N(c1ncccc1-c1cc[nH]n1)[C@@H]1CCCNC1` [Example 136, (R)—N-(3-(1H-pyrazol-3-yl)pyridin-2-yl)-4-(3H-[1,2,3]triazolo[4,5-b]pyridin-3-yl)-2-fluoro-N-(piperidin-3-yl)benzamide]: 1100 nM; for `Cc1cccc2ccnc(N(C(=O)c3ccc(Nc4cccn(C)c4=O)cc3F)[C@@H]3CCCNC3)c12` [Example 131, (R)-2-fluoro-4-((1-methyl-2-oxo-1,2-dihydropyridin-3-yl)amino)-N-(8-methylisoquinolin-1-yl)-N-(piperidin-3-yl)benzamide]: 1910 nM; for `Cc1cccc2ccnc(N(C(=O)c3ccc(-n4nnc5ccc(C(N)=O)nc54)cc3F)[C@@H]3CCCNC3)c12` [Example 170, (R)-3-(3-fluoro-4-((8-methylisoquinolin-1-yl)(piperidin-3-yl)carbamoyl)phenyl)-3H-[1,2,3]triazolo[4,5-b]pyridine-5-carboxamide]: 56.2 nM.
The value for `CC1(c2ccno2)CCN(C(=O)N(c2cc3ccccc3cn2)[C@@H]2CCCNC2)CC1` [Example 190, (R)—N-(isoquinolin-3-yl)-4-(isoxazol-5-yl)-4-methyl-N-(piperidin-3-yl)piperidine-1-carboxamide] was 5890 nM.
For the compound `Cc1cccc2ccnc(N(C(=O)c3cccc(Cn4ccnn4)c3F)[C@@H]3CCCNC3)c12` [Example 271, (R)-3-((1H-1,2,3-triazol-1-yl)methyl)-2-fluoro-N-(8-methylisoquinolin-1-yl)-N-(piperidin-3-yl)benzamide], the IC50 was 4790 nM.
Take `Cc1ccnc(N(C)c2ccc(C(=O)N(c3nccc4cccc(C)c34)[C@@H]3CCCNC3)c(F)c2)n1` [Example 180, (R)-2-fluoro-4-(methyl (4-methylpyrimidin-2-yl)amino)-N-(8-methylisoquinolin-1-yl)-N-(piperidin-3-yl)benzamide]: the IC50 was 3390 nM.
The same measure for `Cc1csc2ccnc(N(C(=O)c3ccc(-n4nnc5cccnc54)cc3F)[C@@H]3CCCNC3)c12` [Example 121, 2-fluoro-N-(3-methylthieno[3,2-c]pyridin-4-yl)-N-[(3R)-3-piperidyl]-4-(triazolo[4,5-b]pyridin-3-yl)benzamide]: 38 nM; for `Cc1cccc2ccnc(N(C(=O)c3ccc(-c4nnn(C)n4)cc3F)[C@@H]3CCCNC3)c12` [Example 125, (R)-2-fluoro-4-(2-methyl-2H-tetrazol-5-yl)-N-(8-methylisoquinolin-1-yl)-N-(piperidin-3-yl) benzamide]: 24.5 nM.
For the compound `CCc1ccc2nnn(-c3ccc(C(=O)N(c4nccc5cccc(C)c45)[C@@H]4CCCNC4)c(F)c3)c2n1` [Example 216, (R)-4-(5-ethyl-3H-[1,2,3]triazolo[4,5-b]pyridin-3-yl)-2-fluoro-N-(8-methylisoquinolin-1-yl)-N-(piperidin-3-yl)benzamide], the IC50 is 437 nM.
The same measure for `Cc1cccc2ccnc(N(C(=O)c3ccc(Nc4nc5ccccn5n4)cc3F)[C@@H]3CCCNC3)c12` [Example 169, (R)-4-([1,2,4]triazolo[1,5-a]pyridin-2-ylamino)-2-fluoro-N-(8-methylisoquinolin-1-yl)-N-(piperidin-3-yl)benzamide]: 316 nM; for `Cc1cccc2ccnc(N(C(=O)c3ccc(-n4nnc5cccnc54)cc3)[C@H]3CCNC3)c12` [Example 231, (S)-4-(3H-[1,2,3]triazolo[4,5-b]pyridin-3-yl)-N-(8-methylisoquinolin-1-yl)-N-(pyrrolidin-3-yl)benzamide]: greater than 20000 nM.
The same measure for `O=C(c1ccc(-n2nnc3cccnc32)cc1F)N(c1nccc2cc(F)ccc12)[C@@H]1CCCNC1` [Example 144, (R)-4-(3H-[1,2,3]triazolo[4,5-b]pyridin-3-yl)-2-fluoro-N-(6-fluoroisoquinolin-1-yl)-N-(piperidin-3-yl)benzamide]: 603 nM; for `CN(C)C(=O)c1cccnc1N(C(=O)c1ccc(-n2nnc3cccnc32)cc1F)[C@@H]1CCCNC1` [Example 247, (R)-2-(4-(3H-[1,2,3]triazolo[4,5-b]pyridin-3-yl)-2-fluoro-N-(piperidin-3-yl)benzamido)-N,N-dimethylnicotinamide]: 5010 nM.
`Cc1cccc2ccnc(N(C(=O)c3ccc(-n4nnc5ccc(C(F)(F)F)nc54)cc3F)[C@@H]3CCCNC3)c12` [Example 205, (R)-2-fluoro-N-(8-methylisoquinolin-1-yl)-N-(piperidin-3-yl)-4-(5-(trifluoromethyl)-3H-[1,2,3]triazolo[4,5-b]pyridin-3-yl)benzamide]: the IC50 is 170 nM.
The value for `O=C(c1ccc(I)cc1F)N(c1nccc2cccc(Cl)c12)[C@@H]1CCCNC1` [Example 141, (R)—N-(8-chloroisoquinolin-1-yl)-2-fluoro-4-iodo-N-(piperidin-3-yl)benzamide] was 1910 nM; that for `Cc1nccnc1-c1ccc(C(=O)N(c2nccc3cccc(Cl)c23)[C@@H]2CCCNC2)c(F)c1` [Example 182, (R)—N-(8-chloroisoquinolin-1-yl)-2-fluoro-4-(3-methylpyrazin-2-yl)-N-(piperidin-3-yl)benzamide] was 891 nM; that for `Cc1cccc2ccnc(N(C(=O)c3ccc(-n4nnc(C(C)Cl)n4)cc3F)[C@@H]3CCCNC3)c12` (stereo partly drawn) [Example 298, 4-(5-(1-chloroethyl)-2H-tetrazol-2-yl)-2-fluoro-N-(8-methylisoquinolin-1-yl)-N—((R)-piperidin-3-yl) benzamide] was 263 nM.
The same measure for `Cc1cccc2ccnc(N(C(=O)c3ccc(Nc4nnc(C(F)(F)F)s4)cc3F)[C@@H]3CCCNC3)c12` [Example 281, 2-fluoro-N-(8-methyl-1-isoquinolyl)-N-[(3R)-3-piperidyl]-4-[[5-(trifluoromethyl)-1,3,4-thiadiazol-2-yl]amino] benzamide]: 2630 nM.
